In paper PMC11266714, “Extraction optimization and reactivity of 7α-acetoxy-6β-hydroxyroyleanone and ability of its derivatives to modulate PKC isoforms” (Scientific Reports, 2024):
Where two headings read alike, the source gives them in different places. Blank lines part the entries; values can stand above or below the compound they belong to.

Columns and labels:
[1] = biological target: T1, PKC-ζ (Mus musculus, UniProt Q02956); assay: Yeast PKC assay, PKC-ζ; type: cell-based
T1 construct: expressed in transfected cells; host or cells: Saccharomyces cerevisiae
T1 sequence (Q02956 1-592): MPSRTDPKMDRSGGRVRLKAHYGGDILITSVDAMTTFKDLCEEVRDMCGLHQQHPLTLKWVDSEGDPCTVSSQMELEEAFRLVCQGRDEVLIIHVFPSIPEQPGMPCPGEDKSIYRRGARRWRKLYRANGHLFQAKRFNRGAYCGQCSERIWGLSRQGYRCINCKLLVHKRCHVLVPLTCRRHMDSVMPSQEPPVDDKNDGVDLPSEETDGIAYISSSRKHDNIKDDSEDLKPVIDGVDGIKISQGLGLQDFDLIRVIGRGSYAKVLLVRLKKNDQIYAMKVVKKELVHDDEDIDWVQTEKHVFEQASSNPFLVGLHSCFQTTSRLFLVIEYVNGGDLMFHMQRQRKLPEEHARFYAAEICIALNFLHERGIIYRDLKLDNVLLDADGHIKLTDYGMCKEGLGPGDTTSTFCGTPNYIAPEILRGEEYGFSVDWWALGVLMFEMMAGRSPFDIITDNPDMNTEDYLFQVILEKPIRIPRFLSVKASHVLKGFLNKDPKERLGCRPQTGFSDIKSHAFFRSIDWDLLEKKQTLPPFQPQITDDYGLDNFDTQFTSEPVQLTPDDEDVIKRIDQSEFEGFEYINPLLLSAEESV
Description: (§1) PKC isoforms are key targets for cancer therapy due to their significant roles in cancer development and progression. The selective-PKC-δ activation observed for RoyBz is well established. Nonetheless, it is important to understand the effect of Roy on PKC isoforms. Due to the specificity of the assay, it was decided to evaluate only few compounds: the natural ones Roy and DeRoy and two derivatives, one aromatic ester RoyBz and one aliphatic ester RoyPr[27] as PKC-α, -βI, -δ, -ε, and -ζ activators using the yeast PKC assay.
(§2) For the determination of EC50 values were considered the concentration of compound that caused 50% of the maximal growth inhibition caused by the positive controls (phorbol 12-myristate 13-acetate, PMA, for cPKCs and nPKCs; arachidonic acid, ARA, for PKCζ), which was set as 100%. Data are mean ± SEM of four independent experiments. nt, not tested; ND, non-determinable (when the maximal response achieved was lower than 50% growth inhibition).
(§3) The royleanones Roy, RoyBz and RoyPr were tested on the yeast assay as reported in[3]. Briefly, Saccharomyces cerevisiae cells individually expressing mammalian PKC-α, -βI, -δ, -ε, or -ζ, and control yeast (transformed with empty vector) obtained in previous works were used. Cells were grown in galactose selective medium in the presence of 0.1—30 μM of compounds (or 0.1% DMSO only) for approximately 42 h. Yeast growth was analyzed by counting the number of colony-forming units, after 2 days incubation at 30 °C. The growth of yeast transformed with the empty vector (control) was considered as 100%. From the dose–response curves obtained, EC50 (half maximal effective concentration) values were determined for the tested compounds.

[2] = biological target: T2, PKC-α (Bos taurus, UniProt P04409); assay: Yeast PKC assay, PKC-α; type: cell-based, yeast (Saccharomyces cerevisiae)
T2 construct: expressed in transfected cells; host or cells: Saccharomyces cerevisiae
Description: as §1, §2, §3

[3] = biological target: T3, PKC-δ (Rattus norvegicus, UniProt P09215); assay: Yeast PKC assay, PKC-δ; type: cell-based
T3 construct: expressed in transfected cells; host or cells: Saccharomyces cerevisiae
Description: as §1, §2, §3

[4] = biological target: T4, PKC-ε (Homo sapiens, UniProt Q02156); assay: Yeast PKC assay, PKC-ε; type: cell-based
T4 construct: expressed in transfected cells; host or cells: Saccharomyces cerevisiae
T4 sequence (Q02156 1-737): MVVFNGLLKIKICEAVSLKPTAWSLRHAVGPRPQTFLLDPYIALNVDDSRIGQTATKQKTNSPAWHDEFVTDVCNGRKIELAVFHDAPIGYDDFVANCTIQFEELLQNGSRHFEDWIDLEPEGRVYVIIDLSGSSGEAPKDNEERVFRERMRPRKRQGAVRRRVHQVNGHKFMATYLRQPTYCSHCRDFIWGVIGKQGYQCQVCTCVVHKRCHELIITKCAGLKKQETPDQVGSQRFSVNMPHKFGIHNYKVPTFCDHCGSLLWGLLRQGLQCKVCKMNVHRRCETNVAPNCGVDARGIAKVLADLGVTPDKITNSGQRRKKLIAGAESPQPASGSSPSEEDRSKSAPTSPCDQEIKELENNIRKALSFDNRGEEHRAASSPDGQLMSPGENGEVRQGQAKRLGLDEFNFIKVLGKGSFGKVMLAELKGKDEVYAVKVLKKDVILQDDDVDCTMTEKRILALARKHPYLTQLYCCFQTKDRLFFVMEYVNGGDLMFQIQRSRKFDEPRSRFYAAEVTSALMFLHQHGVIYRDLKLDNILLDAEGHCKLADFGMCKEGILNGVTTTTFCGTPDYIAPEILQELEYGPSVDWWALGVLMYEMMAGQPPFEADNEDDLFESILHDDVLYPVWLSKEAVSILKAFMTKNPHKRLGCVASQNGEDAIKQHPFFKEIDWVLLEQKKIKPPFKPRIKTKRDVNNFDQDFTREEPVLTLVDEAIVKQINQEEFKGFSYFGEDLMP
Description: as §1, §2, §3

[5] = system: MCF-7 human breast adenocarcinoma cells; conditions: cited from earlier work
[6] = system: MCF-7 human breast adenocarcinoma cells; assay: Sulforhodamine B (SRB) cell proliferation assay, MCF-7; type: cell-based
Experimental: (§4) The cytotoxic effect (IC50 values, Table 4) was determined from dose–response curves.
(§5) Royleanones and doxorubicin (Doxo) were tested on human breast adenocarcinoma lines. […] HFF‐1 cells were cultured in DMEM/F‐12 supplemented with 10% FBS. All cells were maintained at 37 °C in a humidified atmosphere of 5% CO2. Cells were routinely tested for mycoplasma infection using the MycoAlert™ PLUS mycoplasma detection kit (Lonza).
(§6) For the evaluation of the effect of the compounds on cell proliferation, the SRB assay was performed. […] Cells were treated for 48 h with serial dilutions of the compounds (ranging from 0.1 to 30.0 µM). The effects on cell proliferation were assessed by SRB assay, as described, and IC50 values were determined for each cell line using the GraphPad Prism software version 7.0 (La Jolla, CA, USA).

[7] = system: MDA-MB-231 human breast adenocarcinoma cells; assay: Sulforhodamine B (SRB) cell proliferation assay, MDA-MB-231; type: cell-based
Experimental: as §4, §5, §6

[8] = system: MDA-MB-468 human breast adenocarcinoma cells; assay: Sulforhodamine B (SRB) cell proliferation assay, MDA-MB-468; type: cell-based
Experimental: as §4, §5, §6

[9] = system: non-tumorigenic foreskin fibroblasts HFF-1 cells; assay: Sulforhodamine B (SRB) cell proliferation assay, HFF-1; type: cell-based, human
Experimental: as §4, §5, §6

[10] = biological target: T5, PKC-βI (Rattus norvegicus, UniProt P68403); assay: Yeast PKC assay, PKC-βI; type: cell-based, yeast (Saccharomyces cerevisiae)
T5 construct: expressed in transfected cells; host or cells: Saccharomyces cerevisiae
Description: as §1, §2, §3

[11] = biological target: T3, PKC-δ; parameters: method as in PMID 29348560; conditions: yeast PKC assay; cited from earlier work
[12] = yeast growth inhibition, 50% of maximal effect of ARA, mean ± SEM, four experiments, ND = maximal response lower than 50% growth inhibition, read-out: EC50 (nM) PKC-ζ
[13] = yeast growth inhibition, 50% of maximal effect of PMA, mean ± SEM, four experiments, ND = maximal response lower than 50% growth inhibition, read-out: EC50 (nM) PKC-α
[14] = yeast growth inhibition, 50% of maximal effect of PMA, mean ± SEM, four experiments, ND = maximal response lower than 50% growth inhibition, read-out: EC50 (nM) PKC-δ
[15] = yeast growth inhibition, 50% of maximal effect of PMA, mean ± SEM, four experiments, ND = maximal response lower than 50% growth inhibition, read-out: EC50 (nM) PKC-ε
[16] = Homo sapiens, MCF7, 48 h treatment
[17] = Homo sapiens, MDA-MB-231, 48 h, 48 h treatment
[18] = Homo sapiens, MDA-MB-468, 48 h, 48 h treatment
[19] = Homo sapiens, MDA-MB-231, 48 h treatment
[20] = Homo sapiens, MDA-MB-468, 48 h treatment
[21] = Homo sapiens, HFF-1, 48 h treatment
[22] = yeast growth inhibition, 50% of maximal effect of PMA, mean ± SEM, four experiments, ND = maximal response lower than 50% growth inhibition, read-out: EC50 (nM) PKC-βI

T5 sequence (P68403 whole entry): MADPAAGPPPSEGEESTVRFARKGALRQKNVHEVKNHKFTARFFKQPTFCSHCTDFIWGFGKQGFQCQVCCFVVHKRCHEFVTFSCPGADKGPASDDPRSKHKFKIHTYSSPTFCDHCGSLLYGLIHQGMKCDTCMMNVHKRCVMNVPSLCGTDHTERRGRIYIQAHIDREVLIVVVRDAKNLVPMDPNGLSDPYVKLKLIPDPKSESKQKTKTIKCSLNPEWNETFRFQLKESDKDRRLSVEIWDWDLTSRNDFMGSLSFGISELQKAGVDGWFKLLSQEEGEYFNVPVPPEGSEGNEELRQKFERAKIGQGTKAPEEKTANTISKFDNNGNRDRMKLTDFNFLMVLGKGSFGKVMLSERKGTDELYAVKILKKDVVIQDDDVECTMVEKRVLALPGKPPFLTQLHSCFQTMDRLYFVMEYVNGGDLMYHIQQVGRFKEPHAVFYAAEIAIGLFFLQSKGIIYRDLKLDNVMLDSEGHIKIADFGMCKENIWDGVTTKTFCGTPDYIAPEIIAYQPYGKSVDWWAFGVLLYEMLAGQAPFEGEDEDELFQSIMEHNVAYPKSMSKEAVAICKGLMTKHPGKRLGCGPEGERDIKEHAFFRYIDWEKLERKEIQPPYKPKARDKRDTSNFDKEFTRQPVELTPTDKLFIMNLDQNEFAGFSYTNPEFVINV
T3 sequence (P09215 whole entry): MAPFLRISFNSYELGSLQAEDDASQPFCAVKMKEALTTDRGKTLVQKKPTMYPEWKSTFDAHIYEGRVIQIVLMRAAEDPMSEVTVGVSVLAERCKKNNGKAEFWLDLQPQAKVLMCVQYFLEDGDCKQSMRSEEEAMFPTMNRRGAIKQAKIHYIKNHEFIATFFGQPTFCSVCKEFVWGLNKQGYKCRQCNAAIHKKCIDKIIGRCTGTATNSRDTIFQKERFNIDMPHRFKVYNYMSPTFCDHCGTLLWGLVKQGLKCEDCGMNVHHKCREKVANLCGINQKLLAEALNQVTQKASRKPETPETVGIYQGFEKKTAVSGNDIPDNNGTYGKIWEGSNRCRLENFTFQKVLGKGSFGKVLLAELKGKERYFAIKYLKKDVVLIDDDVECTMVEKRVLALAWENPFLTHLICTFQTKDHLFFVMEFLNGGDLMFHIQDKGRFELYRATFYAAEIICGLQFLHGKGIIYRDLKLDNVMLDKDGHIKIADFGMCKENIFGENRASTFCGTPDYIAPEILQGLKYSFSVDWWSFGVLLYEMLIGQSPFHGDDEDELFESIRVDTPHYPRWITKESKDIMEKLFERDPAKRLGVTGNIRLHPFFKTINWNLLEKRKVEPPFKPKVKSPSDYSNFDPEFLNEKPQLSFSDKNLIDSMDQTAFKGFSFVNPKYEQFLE

EC50 [1, 12]: 205 ± 32.6 nM
SMILES: CCCCC/C=C\C/C=C\C/C=C\C/C=C\CCCC(=O)O [ARA, arachidonic acid, reference compound]

SMILES: CC(C)C1=C(O)C(=O)C2=C(C=C[C@H]3C(C)(C)CCC[C@]23C)C1=O [DeRoy, 6,7-dehydroroyleanone]
EC50 [2, 13]: 15 ± 1.9 nM
EC50 [3, 14]: 3.1 ± 0.6 nM
EC50 [4, 15]: 5.8 ± 0.7 nM
EC50 [1]: 43.8 ± 2.32 nM
IC50 [5]: 60400 ± 3690 nM

IC50 [6, 16]: > 20000 nM
IC50 [7, 17]: > 20000 nM
IC50 [8, 18]: > 20000 nM
SMILES: CC(C)C1=C(O)C(=O)C2=C(C1=O)[C@H](O)[C@@H](O)[C@H]1C(C)(C)CCC[C@]21C [DiRoy, 6β,7α-dihydroxyroyleanone]

IC50 [6, 16]: 600 ± 10 nM
IC50 [7, 19]: 1200 ± 50 nM
IC50 [8, 20]: 300 ± 40 nM
SMILES: COc1cccc2c1C(=O)c1c(O)c3c(c(O)c1C2=O)C[C@@](O)(C(=O)CO)C[C@@H]3O[C@H]1C[C@H](N)[C@H](O)[C@H](C)O1 [Doxo, Doxorubicin, reference compound]
IC50 [9, 21]: 100 ± 120 nM

SMILES: CCCCCCCCCCCCCC(=O)O[C@@H]1[C@@H](C)[C@@]2(O)[C@@H](C=C(CO)C[C@]3(O)C(=O)C(C)=C[C@@H]23)[C@@H]2C(C)(C)[C@]12OC(C)=O [PMA, phorbol 12-myristate 13-acetate, reference compound]
EC50 [2]: 112 ± 18.4 nM
EC50 [10]: 243 ± 69.1 nM
EC50 [3]: 574 ± 36.7 nM
EC50 [4]: 1680 ± 46.5 nM

SMILES: CC(=O)OC1C2=C(C(=O)C(O)=C(C(C)C)C2=O)C2(C)CCCC(C)(C)C2C1O (stereo not drawn) [Roy, 7α-acetoxy-6β-hydroxyroyleanone]
IC50 [6, 16]: 2090 ± 420 nM
IC50 ([7]; 48 h treatment): 350 ± 120 nM
IC50 [7, 17]: 300 nM
IC50 ([8]; 48 h treatment): 300 ± 160 nM
IC50 [8, 18]: 350 nM
IC50 [9, 21]: 1020 ± 280 nM
EC50 [2, 13]: 350 ± 42 nM
EC50 [10, 22]: 423 ± 67 nM
EC50 [4, 15]: 994 ± 63 nM
EC50 [1, 12]: 4110 ± 159 nM

SMILES: CC(=O)OC1=C(C(C)C)C(=O)C2=C(C1=O)C1(C)CCCC(C)(C)C1C(O)C2OC(C)=O (stereo not drawn) [Roy-12-Ac, 7α-acetoxy-6β-hydroxy-12-O-acetylroyleanone]
IC50 ([6]; 48 h treatment): 5670 ± 240 nM
IC50 ([7]; 48 h treatment): 2430 ± 150 nM
IC50 ([8]; 48 h treatment): 1600 ± 160 nM
IC50 ([9]; 48 h treatment): 600 ± 40 nM

SMILES: CC(=O)O[C@H]1C2=C(C(=O)C(OC(=O)c3ccccc3)=C(C(C)C)C2=O)[C@@]2(C)CCCC(C)(C)[C@@H]2[C@@H]1O [Roy-12-Bz, 7α-acetoxy-6β-hydroxy-12-O-benzoylroyleanone]
IC50 [6, 16]: 4320 ± 240 nM
IC50 [7, 17]: 1650 ± 150 nM
IC50 [8, 18]: 1280 nM
IC50 [9, 21]: 1160 ± 220 nM

SMILES: CC(=O)OC1=C(C(C)C)C(=O)C2=C(C1=O)C1(C)CCCC(C)(C)C1C(OC(C)=O)C2OC(C)=O (stereo not drawn) [RoyAc, 7α,6β-diacetoxy-12-O-acetylroyleanone]
IC50 ([6]; 48 h treatment): 4250 ± 570 nM
IC50 ([7]; 48 h treatment): 1860 ± 90 nM
IC50 ([8]; 48 h treatment): 3250 ± 200 nM
IC50 ([9]; 48 h treatment): 4970 ± 340 nM

SMILES: CC(=O)O[C@H]1C2=C(C(=O)C(OC(=O)c3ccccc3)=C(C(C)C)C2=O)[C@@]2(C)CCCC(C)(C)[C@@H]2[C@@H]1OC(=O)c1ccccc1 [RoyBz, 7α-acetoxy-6β-benzoyloxy-12-O-benzoylroyleanone]
IC50 [6, 16]: 1660 ± 100 nM
IC50 [7, 19]: 1500 ± 850 nM
IC50 [8, 20]: 1400 ± 80 nM
IC50 [9, 21]: 3580 ± 270 nM
EC50 [11]: 108 nM

SMILES: CCC(=O)OC1=C(C(C)C)C(=O)C2=C(C1=O)C1(C)CCCC(C)(C)C1C(OC(=O)CC)C2OC(C)=O (stereo not drawn) [RoyPr, 7α-acetoxy-6β-propanoyloxy-12-O-propanoylroyleanone]
EC50 [2, 13]: 195 ± 16 nM
EC50 [10, 22]: 229 ± 21 nM
EC50 [3, 14]: 325 ± 49 nM
EC50 [4, 15]: 770 ± 46 nM
IC50 [5]: 28300 ± 2400 nM
